Reference: ChEMBL document CHEMBL1201862, “PubChem BioAssay data set” (2004)
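Cultured in 96-well plates, cells were exposed to test compound for 48 hours across five concentrations. GI50 is the concentration that inhibits growth by half.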 Active and inactive are the calls of the source. No stated cut-off is given here; in the data, active = GI50 up to about 1.1 µM and inactive = higher.

Tests used:
Assay in all cases: inhibition of tumour cell growth, NCI panel, 48 h
ACHN = system: ACHN
CAKI-1 = system: CAKI-1
EKVX = system: EKVX
HCC 2998 = system: HCC 2998
HCT-15 = system: HCT-15
HOP-62 = system: HOP-62
HT-29 = system: HT-29
Hs-578T = system: Hs-578T
K562 = system: K562
LOX IMVI = system: LOX IMVI
MCF7 = system: MCF7
MDA-MB-231 = system: MDA-MB-231
MDA-N = system: MDA-N
NCI/ADR-RES = system: NCI/ADR-RES
OVCAR-3 = system: OVCAR-3
PC-3 = system: PC-3
SK-MEL-2 = system: SK-MEL-2
SN12C = system: SN12C
M19-MEL = system: M19-MEL
DMS-114 = system: DMS-114

SMILES | GI50 (ACHN) | GI50 (CAKI-1) | GI50 (EKVX) | GI50 (HCC 2998) | GI50 (HCT-15) | GI50 (HOP-62) | GI50 (HT-29) | GI50 (Hs-578T) | GI50 (K562) | GI50 (LOX IMVI) | GI50 (MCF7) | GI50 (MDA-MB-231) | GI50 (MDA-N) | GI50 (NCI/ADR-RES) | GI50 (OVCAR-3) | GI50 (PC-3) | GI50 (SK-MEL-2) | GI50 (SN12C) | GI50 (M19-MEL) | GI50 (DMS-114)
CC(C)CC(NC(=O)C(O)C(N)Cc1ccccc1)C(=O)O (centres undefined) | > 100 µM (inactive) | > 100 µM (inactive) | > 100 µM (inactive) | > 100 µM (inactive) | > 100 µM | > 100 µM (inactive) | > 100 µM (inactive) | > 100 µM (inactive) | > 100 µM (inactive) | > 100 µM (inactive) | > 100 µM (inactive) | > 100 µM (inactive) | > 100 µM (inactive) | > 100 µM (inactive) | > 100 µM (inactive) | > 100 µM (inactive) | > 100 µM (inactive) | > 100 µM (inactive) | – | –
CCN(CC)CC(C)(C)C(=O)/C=C/c1ccc(C)cc1 | 14.6 µM (inactive) | 12.6 µM (inactive) | 4.88 µM (inactive) | 10 µM (inactive) | 3.61 µM | 18.5 µM (inactive) | 3.86 µM (inactive) | – | 3.03 µM (inactive) | 11 µM (inactive) | – | – | – | – | 9.14 µM (inactive) | – | 12.7 µM (inactive) | 7.64 µM (inactive) | 9.46 µM (inactive) | –
Cc1ccc(C(=O)N/N=C(\N=N\c2cccc([N+](=O)[O-])c2)c2ccc(N(CCC#N)CCC#N)cc2C)cc1 | 42.9 µM (inactive) | 38.9 µM (inactive) | 25.5 µM (inactive) | 30.9 µM (inactive) | 30.8 µM | 25.4 µM (inactive) | 29.2 µM (inactive) | 23.4 µM (inactive) | 22.8 µM (inactive) | 24.5 µM (inactive) | 13.2 µM (inactive) | 30.5 µM (inactive) | 25.1 µM (inactive) | 34.8 µM (inactive) | 2.32 µM (inactive) | 23.8 µM (inactive) | 26.9 µM (inactive) | 46.6 µM (inactive) | – | –
CN1C(=O)NC2(O)c3ccccc3C(=O)C12O (centres undefined) | – | > 100 µM (inactive) | > 100 µM (inactive) | – | > 100 µM | – | > 100 µM (inactive) | – | > 100 µM (inactive) | > 100 µM (inactive) | – | – | – | – | > 100 µM (inactive) | – | > 100 µM (inactive) | – | > 100 µM (inactive) | > 100 µM (inactive)
CCOP(=O)(CCCC(O)CNc1nc(N)nc(Cl)c1/N=N/c1ccc(Cl)cc1)OCC (centres undefined) | 4.05 µM (inactive) | 3.02 µM (inactive) | 3.63 µM (inactive) | 15.4 µM (inactive) | 6.28 µM | 9.89 µM (inactive) | 9.73 µM (inactive) | 4.85 µM (inactive) | 4.63 µM (inactive) | 3.75 µM (inactive) | 11.9 µM (inactive) | 2.59 µM (inactive) | 5.82 µM (inactive) | 10.4 µM (inactive) | 5.73 µM (inactive) | 4.86 µM (inactive) | 12.2 µM (inactive) | 5.15 µM (inactive) | – | –
COC1=CC(=O)c2ccccc2C1(CCC=C(C)C)C1=NC(C)(C)CO1 (centres undefined) | 6.62 µM (inactive) | > 100 µM (inactive) | 71.8 µM (inactive) | – | 61.1 µM | > 100 µM (inactive) | 81.8 µM (inactive) | – | 28.4 µM (inactive) | – | – | – | – | – | > 100 µM (inactive) | – | 83.6 µM (inactive) | 94.6 µM (inactive) | 48.2 µM (inactive) | –
COC(=O)/C(C#N)=C1\CCC(O)N1C (centres undefined) | > 100 µM (inactive) | > 100 µM (inactive) | > 100 µM (inactive) | > 100 µM (inactive) | – | > 100 µM (inactive) | > 100 µM (inactive) | – | > 100 µM (inactive) | > 100 µM (inactive) | – | – | – | – | > 100 µM (inactive) | – | > 100 µM (inactive) | > 100 µM (inactive) | – | > 100 µM (inactive)
N=S(c1ccccc1[N+](=O)[O-])c1ccccc1[N+](=O)[O-] | 1.77 µM (inactive) | 3.3 µM (inactive) | 7.73 µM (inactive) | 5.32 µM (inactive) | 1.62 µM | 5.96 µM (inactive) | – | – | – | 0.944 µM (active) | – | – | – | – | 1.5 µM (inactive) | – | 4.84 µM (inactive) | 1.72 µM (inactive) | 2.43 µM (inactive) | –
Cc1ccccc1NC(=O)C(=O)C1CN(c2ccccc2)N=C1N (centres undefined) | – | > 100 µM (inactive) | > 100 µM (inactive) | > 100 µM (inactive) | – | > 100 µM (inactive) | > 100 µM (inactive) | – | > 100 µM (inactive) | – | – | – | – | – | > 100 µM (inactive) | – | – | > 100 µM (inactive) | > 100 µM (inactive) | –
CC1Cc2c(N)nc(N3CCOCC3)nc2NC1=O (centres undefined) | > 100 µM (inactive) | – | > 100 µM (inactive) | – | > 100 µM | > 100 µM (inactive) | > 100 µM (inactive) | – | > 100 µM (inactive) | > 100 µM (inactive) | – | – | – | – | > 100 µM (inactive) | – | > 100 µM (inactive) | > 100 µM (inactive) | > 100 µM (inactive) | > 100 µM (inactive)
CCCCCCC/C=C1\CCC(CN(C)C)C1=O (centres undefined) | 17.6 µM (inactive) | 16.3 µM (inactive) | 15.5 µM (inactive) | 17.7 µM (inactive) | 8.36 µM | 17.6 µM (inactive) | 14.6 µM (inactive) | 3.88 µM (inactive) | 2.83 µM (inactive) | 6.85 µM (inactive) | 3.24 µM (inactive) | 3.2 µM (inactive) | 13.2 µM (inactive) | 2.61 µM (inactive) | 9.38 µM (inactive) | 14.5 µM (inactive) | 15.9 µM (inactive) | 9.1 µM (inactive) | – | –
C=C/C=C/NC(=O)OCc1ccccc1 | > 100 µM (inactive) | > 100 µM (inactive) | > 100 µM (inactive) | – | – | > 100 µM (inactive) | > 100 µM (inactive) | – | > 100 µM (inactive) | > 100 µM (inactive) | – | – | – | – | > 100 µM (inactive) | – | > 100 µM (inactive) | > 100 µM (inactive) | > 100 µM (inactive) | > 100 µM (inactive)
CC(=O)NC1=C(NCC(C)(C)C)C(=O)c2ccccc2C1=O | 26.9 µM (inactive) | – | 76.9 µM (inactive) | > 100 µM (inactive) | 55.3 µM | > 100 µM (inactive) | > 100 µM (inactive) | – | 38.2 µM (inactive) | 66.8 µM (inactive) | – | – | – | – | 55.2 µM (inactive) | – | 69 µM (inactive) | > 100 µM (inactive) | 21.1 µM (inactive) | –
[N-]=[N+]=NCc1nc(N)c2c3c(sc2n1)CCCC3 | 3 µM (inactive) | 1.56 µM (inactive) | 2.1 µM (inactive) | 1.84 µM (inactive) | 2.76 µM | 3.72 µM (inactive) | 1.55 µM (inactive) | 2.72 µM (inactive) | 4.22 µM (inactive) | 0.272 µM (active) | 2.19 µM (inactive) | 6.17 µM (inactive) | 2.51 µM (inactive) | 1.99 µM (inactive) | 2.75 µM (inactive) | 2.04 µM (inactive) | 9.38 µM (inactive) | 2.74 µM (inactive) | – | –
Cn1cnc([N+](=O)[O-])c1Sc1nc2cc([N+](=O)[O-])ccc2[nH]1 | 36.5 µM (inactive) | 12.6 µM (inactive) | 10.5 µM (inactive) | 15 µM (inactive) | 13.5 µM | > 100 µM (inactive) | 36.4 µM (inactive) | – | 24.8 µM (inactive) | 24.7 µM (inactive) | – | – | – | – | 37.9 µM (inactive) | – | – | > 10 µM (inactive) | 17.4 µM (inactive) | –
